The source of these data is US9708325B2, “Sulfonimidoylpurinone compounds and derivatives for the treatment and prophylaxis of virus infection” (Hoffmann-La Roche Inc., priority 2015, dated 2017).

The target in one data set is human TLR7 (Homo sapiens (Human), UniProt Q9NYK1). Put plainly: HEK-Blue-hTLR7 cells assay (SEAP reporter). As to conditions: 20 hrs, read-out: HEK-Blue-hTLR7 (EC50 (μM)). In kind it is cell-based. A digest of the protocol:
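HEK-Blue cells stably carrying human TLR7 and an NF-κB-driven SEAP reporter, preincubated 24 h, then exposed to serially diluted compound (1% DMSO final) for 20 h at 37 °C. Supernatant SEAP measured with QUANTI-Blue substrate, 2 h at 37 °C, absorbance read at 620–655 nm.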

Data set [1] is described as follows: Metabolic stability in human liver microsomes. The conditions noted are these: 1 μM test compound, 0.5 mg/mL microsomal protein; 6.15 mL/min/kg is the limitation of assay sensitivity. The procedure, abridged: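 Test compound at 1 μM with 0.5 mg/mL microsomal protein in 100 mM potassium phosphate, pH 7.4, 37 °C, 10 min preincubation, reaction started with NADPH regenerating system. Sampled at 0, 3, 6, 9, 15 and 30 min, quenched with cold ACN, remaining parent by LC-MS/MS. No-NADPH controls at 0 and 30 min.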
Background: Liver microsomes are a subcellular fraction often used to study metabolism.

In data set [2] the test system is Salmonella typhimurium tester strains (TA1535, TA97, TA98, TA100, and TA102). Put plainly: Ames microsuspension assay. The class given is cell-based. As to conditions: five strains, absence and presence of S9. As to the method:
The Ames microsuspension assay examines if a compound causes DNA mutations. The method was based on a modified pre-incubation version described by Kado et al (see references: B. N. Ames, J. McCann, E. Yamasaki, Mutation Res. 1975, 31, 347-364 N.Y. Kado, D. Langley, and E. Eisenstadt, Mutation Res. 1983, 121, 25-32). Five Salmonella typhimurium tester strains (TA1535, TA97, TA98, TA100, and TA102) were treated with the test compound in absence and in presence of an exogenous metabolic activation system (S9). The bacteria were pre-incubated for 1 h, the pre-incubation volume is 210 μL (100 μL of overnight culture, 100 μL of S9 mix (10% S9) or 100 μL phosphate buffer, and 10 μL test compound solution). The overnight cultures were resuspended for the test in cold phosphate buffer. The S9 mix contains potassium chloride, magnesium chloride, sodium phosphate buffered saline, NADP^+ and glucose-6-phosphate. The test tubes are incubated and shaken for 60 minutes at 37° C. 2.2 mL soft agar supplemented with L-histidine and biotin was added afterwards and the content of the tubes were mixed and poured on Vogel-Bonner minimal agar plates.
Three replicate plates for the test compound and negative control or two replicate plates for the positive controls were incubated at 37° C., upside down, for 2 days. Colonies were counted electronically using an automatic image analysis system after having inspected the background lawn for signs of toxicity.
S9 is an in vitro metabolic system which is obtained from liver homogenates by centrifuging them at 9000 g for 20 minutes. It contains CYP450 isoforms, phase-II metabolic enzymes, etc. In the Ames microsuspension assay test, S9 is used to assess mutagenicity of compounds, some of which require metabolic activation to become mutagenic.
Criteria of the Ames microsuspension assay: a positive result is defined as a reproducible, dose-related increase in the number of revertant colonies in at least one of the strains. For TA1535 and TA98, the positive threshold is a 2-fold increase over control. For TA97, TA100 and TA102, the threshold is a 1.5-fold increase.

The target in a further data set is hERG channel (Homo sapiens (Human), UniProt Q12809). Put plainly: hERG channel inhibition assay (patch-clamp, CHOhERG cells). The class given is cell-based. How it is done:
The hERG K^+ channels were cloned in humans and stably expressed in a CHO (Chinese hamster ovary) cell line. CHOhERG cells were used for patch-clamp (voltage-clamp, whole-cell) experiments. Cells were stimulated by a voltage pattern to activate hERG channels and conduct IKhERG currents (rapid delayed outward rectifier potassium current of the hERG channel). […] Thereafter, the test compound was added to the preparation at increasing concentrations. For each concentration, an attempt was made to reach a steady-state effect, usually, this was achieved within 3-10 min at which time the next highest concentration was applied. The amplitude and kinetics of IKhERG are recorded in each concentration of the drug which were compared to the control values (taken as 100%). (references: Redfern W S, Carlsson L, Davis A S, Lynch W G, MacKenzie I, Palethorpe S, Siegl P K, Strang I, Sullivan A T, Wallis R, Camm A J, Hammond T G. 2003; Relationships between preclinical cardiac electrophysiology, clinical QT interval prolongation and torsade de pointes for a broad range of drugs: evidence for a provisional safety margin in drug development. Cardiovasc. Res. 58:32-45, Sanguinetti M C, Tristani-Firouzi M. 2006; hERG potassium channels and cardiac arrhythmia. Nature 440:463-469, Webster R, Leishman D, Walker D. 2002; Towards a drug concentration effect relationship for QT prolongation and torsades de pointes. Curr. Opin. Drug Discov. Devel. 5:116-26).

Setting [3] is: human, CHO cells stably expressing hERG, read-out: hERG IC20.

Where two headings read alike, the source gives them in different places.

Sequence of hERG channel (Q12809 whole entry): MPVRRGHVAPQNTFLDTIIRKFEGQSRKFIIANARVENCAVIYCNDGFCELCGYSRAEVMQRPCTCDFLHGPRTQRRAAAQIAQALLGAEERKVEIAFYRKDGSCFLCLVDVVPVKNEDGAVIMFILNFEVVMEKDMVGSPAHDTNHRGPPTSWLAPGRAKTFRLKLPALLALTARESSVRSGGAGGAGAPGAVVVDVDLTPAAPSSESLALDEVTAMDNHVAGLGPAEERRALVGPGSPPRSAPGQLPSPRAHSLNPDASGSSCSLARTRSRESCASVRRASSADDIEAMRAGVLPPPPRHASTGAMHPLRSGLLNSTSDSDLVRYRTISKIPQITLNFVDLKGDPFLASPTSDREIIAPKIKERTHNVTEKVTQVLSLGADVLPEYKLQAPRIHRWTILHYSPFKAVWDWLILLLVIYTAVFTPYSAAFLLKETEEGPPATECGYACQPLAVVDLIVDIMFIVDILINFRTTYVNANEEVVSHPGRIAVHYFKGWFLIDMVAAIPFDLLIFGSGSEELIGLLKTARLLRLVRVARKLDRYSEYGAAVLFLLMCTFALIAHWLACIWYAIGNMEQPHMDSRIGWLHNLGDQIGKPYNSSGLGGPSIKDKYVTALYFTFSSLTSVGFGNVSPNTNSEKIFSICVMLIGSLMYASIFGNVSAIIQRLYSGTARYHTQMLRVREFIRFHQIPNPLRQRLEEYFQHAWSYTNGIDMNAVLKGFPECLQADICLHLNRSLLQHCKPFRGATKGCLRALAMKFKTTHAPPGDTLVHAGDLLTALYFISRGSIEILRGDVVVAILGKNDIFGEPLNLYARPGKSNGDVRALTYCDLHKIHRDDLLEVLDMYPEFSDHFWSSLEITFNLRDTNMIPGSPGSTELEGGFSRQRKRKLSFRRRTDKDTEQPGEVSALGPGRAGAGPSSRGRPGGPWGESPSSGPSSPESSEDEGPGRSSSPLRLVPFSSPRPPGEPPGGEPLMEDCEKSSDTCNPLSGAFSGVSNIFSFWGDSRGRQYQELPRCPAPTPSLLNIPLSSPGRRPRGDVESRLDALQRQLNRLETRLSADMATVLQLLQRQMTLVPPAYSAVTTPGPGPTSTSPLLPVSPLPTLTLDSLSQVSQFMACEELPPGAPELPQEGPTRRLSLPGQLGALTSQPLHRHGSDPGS
Sequence of human TLR7 (Q9NYK1 27-1049): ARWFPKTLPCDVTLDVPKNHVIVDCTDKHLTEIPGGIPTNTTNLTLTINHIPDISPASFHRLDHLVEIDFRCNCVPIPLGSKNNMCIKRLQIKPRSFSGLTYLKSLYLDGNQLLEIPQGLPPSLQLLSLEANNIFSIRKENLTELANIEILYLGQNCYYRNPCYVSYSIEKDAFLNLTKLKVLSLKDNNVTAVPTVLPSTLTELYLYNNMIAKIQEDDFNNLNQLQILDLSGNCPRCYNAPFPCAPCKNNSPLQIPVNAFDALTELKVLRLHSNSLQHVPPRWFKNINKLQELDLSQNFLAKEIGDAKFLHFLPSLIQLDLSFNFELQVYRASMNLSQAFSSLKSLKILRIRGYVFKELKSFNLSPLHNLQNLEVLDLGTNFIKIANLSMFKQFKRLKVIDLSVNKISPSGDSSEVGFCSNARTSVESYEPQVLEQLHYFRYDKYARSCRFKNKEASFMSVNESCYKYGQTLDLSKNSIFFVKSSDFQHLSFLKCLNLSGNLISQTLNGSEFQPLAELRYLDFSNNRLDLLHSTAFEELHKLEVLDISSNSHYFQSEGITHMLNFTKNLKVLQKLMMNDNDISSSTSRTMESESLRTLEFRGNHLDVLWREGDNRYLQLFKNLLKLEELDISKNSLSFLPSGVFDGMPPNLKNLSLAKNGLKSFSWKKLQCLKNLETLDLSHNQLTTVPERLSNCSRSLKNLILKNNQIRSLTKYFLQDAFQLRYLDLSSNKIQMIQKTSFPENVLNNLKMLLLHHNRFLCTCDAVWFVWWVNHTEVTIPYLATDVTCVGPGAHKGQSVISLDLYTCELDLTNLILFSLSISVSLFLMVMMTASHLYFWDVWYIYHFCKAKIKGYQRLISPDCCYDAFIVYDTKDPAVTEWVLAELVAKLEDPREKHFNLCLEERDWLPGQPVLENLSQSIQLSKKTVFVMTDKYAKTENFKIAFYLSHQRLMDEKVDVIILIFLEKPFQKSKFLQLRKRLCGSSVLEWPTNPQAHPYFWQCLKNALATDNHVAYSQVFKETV

By EC50 is commonly meant the concentration at which the effect is half-maximal. One may read the IC20 as the concentration at which the effect reaches the 20% level. In general, IC50 refers to the midpoint of a concentration-inhibition curve. Regarding `CCCS(=N)(=O)c1nc(N)c2[nH]c(=O)n(Cc3ccc(C(=O)O)cc3)c2n1` (centres unmarked) [Example 39, 4-[[6-Amino-8-oxo-2-(propylsulfonimidoyl)-7H-purin-9-yl]methyl]benzoic acid], the EC50 on human TLR7 was found to be 0.17 µM. In addition, the “Human Liver Microsome Clearance” value in data set [1] is less than 6.15 mL/min/kg. Moreover, the Ames result in data set [2] was “negative”. The “Safety ratio (hERG IC20/EC50)” value at hERG channel is given as more than 59. For the same molecule, the IC20 on hERG channel (setting [3]) is more than 10 µM. Further, at hERG channel (read-out: hERG IC50), the half-maximal inhibitory concentration (IC50) was more than 20 µM.

Consider `CCS(=N)(=O)c1nc(N)c2[nH]c(=O)n(Cc3ccc(C)cc3)c2n1` (single isomer, unassigned) [Example 71-A, 6-Amino-2-(ethylsulfonimidoyl)-9-(p-tolylmethyl)-7H-purin-8-one], for which the “Human Liver Microsome Clearance” value in data set [1] is listed as less than 6.15 mL/min/kg. In addition, the Ames result in data set [2] was “negative”. For the same molecule, the “Safety ratio (hERG IC20/EC50)” value at hERG channel is given as more than 75.

For `CCCS(=N)(=O)c1nc(N)c2[nH]c(=O)n(Cc3ccc(C)nc3)c2n1` (centres unmarked) [Example 34, 6-Amino-9-[(6-methyl-3-pyridyl)methyl]-2-(propylsulfonimidoyl)-7H-purin-8-one], at human TLR7, the EC50 amounted to 0.03 µM. Also, the “Human Liver Microsome Clearance” value in data set [1] is given as less than 6.15 mL/min/kg. Also, the Ames result in data set [2] is given as “negative”. The IC50 against hERG channel was more than 20 µM. The same molecule came in with an IC20 at hERG channel (human) of more than 10 µM.

Take `CCCS(=N)(=O)c1nc(N)c2[nH]c(=O)n(Cc3ccccc3)c2n1` (single isomer, unassigned) [Example 4-B, 6-Amino-9-benzyl-2-(propylsulfonimidoyl)-7H-purin-8-one]: in data set [2], the Ames result was “negative”. At hERG channel, the “Safety ratio (hERG IC20/EC50)” value was more than 116. Besides, the IC20 at hERG channel (read-out: hERG IC20) is more than 10 µM.

As for `CCS(=N)(=O)c1nc(N)c2[nH]c(=O)n(Cc3ccc(Cl)cc3)c2n1` (single isomer, unassigned) [Example 70-B, 6-Amino-9-[(4-chlorophenyl)methyl]-2-(ethylsulfonimidoyl)-7H-purin-8-one], the “Human Liver Microsome Clearance” value in data set [1] is less than 6.15 mL/min/kg. The Ames result in data set [2] is recorded as “negative”.

In the case of `CCS(=N)(=O)c1nc(N)c2[nH]c(=O)n(Cc3ccc(Cl)cc3)c2n1` (single isomer, unassigned) [Example 70-A, 6-Amino-9-[(4-chlorophenyl)methyl]-2-(ethylsulfonimidoyl)-7H-purin-8-one], the “Human Liver Microsome Clearance” value in data set [1] is less than 6.15 mL/min/kg. For the same molecule, in data set [2], the Ames result is reported as “negative”.

As for `CCCS(=N)(=O)c1nc(N)c2[nH]c(=O)n(Cc3ccc(Cl)cc3)c2n1` (centres unmarked) [Example 9, 6-Amino-9-[(4-chlorophenyl)methyl]-2-(propylsulfonimidoyl)-7H-purin-8-one], the EC50 at human TLR7 came out at 0.012 µM. Moreover, the Ames result in data set [2] is “negative”. Also, the “Safety ratio (hERG IC20/EC50)” value on hERG channel was more than 833. Also, the IC20 on hERG channel (setting [3]) was more than 10 µM. Further, the IC50 on hERG channel (read-out: hERG IC50) was more than 20 µM.

Regarding `CCCS(=N)(=O)c1nc(N)c2[nH]c(=O)n(Cc3ccccc3)c2n1` (single isomer, unassigned) [Example 4-A, 6-Amino-9-benzyl-2-(propylsulfonimidoyl)-7H-purin-8-one], on human TLR7, the EC50 is 0.067 µM. The Ames result in data set [2] was “negative”. For the same molecule, on hERG channel, the “Safety ratio (hERG IC20/EC50)” value is reported as more than 149. Further, the IC20 on hERG channel (read-out: hERG IC20) is more than 10 µM.

Regarding `CCCS(=N)(=O)c1nc(N)c2[nH]c(=O)n(Cc3ccccc3)c2n1` (centres unmarked) [Example 4, 6-Amino-9-benzyl-2-(propylsulfonimidoyl)-7H-purin-8-one], the EC50 at human TLR7 was found to be 0.065 µM. In data set [1], the “Human Liver Microsome Clearance” value is less than 6.15 mL/min/kg. The Ames result in data set [2] is reported as “negative”. Moreover, the “Safety ratio (hERG IC20/EC50)” value on hERG channel is on record as more than 154. On hERG channel (setting [3]), the concentration for an effect of 20% (IC20) was more than 10 µM. Besides, the IC50 on hERG channel (read-out: hERG IC50) was more than 20 µM.

As for `CCCS(=N)(=O)c1nc(N)c2[nH]c(=O)n(Cc3ccc(F)c(F)c3)c2n1` (centres unmarked) [Example 27, 6-Amino-9-(3,4-difluorophenylmethyl)-2-(propylsulfonimidoyl)-7H-purin-8-one], the EC50 on human TLR7 stood at 0.036 µM. For the same molecule, in data set [2], the Ames result was “negative”. Moreover, on hERG channel, the “Safety ratio (hERG IC20/EC50)” value is given as more than 278. In addition, the IC20 at hERG channel (setting [3]) is more than 10 µM. For the same molecule, the IC50 on hERG channel (read-out: hERG IC50) was more than 20 µM.

On to `CCCS(=N)(=O)c1nc(N)c2[nH]c(=O)n(Cc3ccc(C)cc3)c2n1` (single isomer, unassigned) [Example 29-A, 6-Amino-2-(propylsulfonimidoyl)-9-(p-tolylmethyl)-7H-purin-8-one], for which the “Human Liver Microsome Clearance” value in data set [1] is less than 6.15 mL/min/kg. The Ames result in data set [2] is recorded as “negative”. In addition, the “Safety ratio (hERG IC20/EC50)” value on hERG channel was more than 526.
